Assay results: ChEMBL document CHEMBL3232866, “Design of novel potent antihyperlipidemic agents with antioxidant/anti-inflammatory properties: exploiting phenothiazine's strong antioxidant activity” (J Med Chem, 2014)
pIC50: −log10 of the molar value. The source made the active and inactive calls. The rule behind the calls is not given here.

What was measured:
[1] = test system: Radical scavenging activity; experiment: Antioxidant activity assessed as DPPH radical scavenging activity after 30 mins; assay type: functional
[2] = test system: Radical scavenging activity; experiment: Antioxidant activity assessed as DPPH radical scavenging activity up to 50 uM measured within 15 mins; assay type: functional
[3] = Antioxidant activity in rat liver microsome membrane assessed as inhibition of lipid peroxidation after 45 mins by TBARS-based spectrophotometric assay; assay type: functional, microsomes
Squalene synthase = target: T1, Squalene synthase (Rattus norvegicus, UniProt Q02769); experiment: (§1) Inhibition of squalene synthase in rat liver microsomes assessed as decrease in conversion of [3H]FPP to squalene
T1 sequence (Q02769 whole entry): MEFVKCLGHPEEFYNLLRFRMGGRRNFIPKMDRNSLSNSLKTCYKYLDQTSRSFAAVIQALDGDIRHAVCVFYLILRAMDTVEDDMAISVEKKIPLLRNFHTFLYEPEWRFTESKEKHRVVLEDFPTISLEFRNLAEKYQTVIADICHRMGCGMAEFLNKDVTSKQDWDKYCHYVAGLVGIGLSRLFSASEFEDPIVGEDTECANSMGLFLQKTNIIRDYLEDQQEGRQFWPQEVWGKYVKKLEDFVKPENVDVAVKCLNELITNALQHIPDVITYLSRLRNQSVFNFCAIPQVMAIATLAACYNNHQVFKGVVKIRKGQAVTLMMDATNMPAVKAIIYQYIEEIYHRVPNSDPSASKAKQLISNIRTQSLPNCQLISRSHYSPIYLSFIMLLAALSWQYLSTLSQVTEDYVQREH

[4] = target: T2, Squalene synthase (Rattus norvegicus) (UniProt Q02769); experiment: as §1
T2 sequence (whole entry): T1 sequence (Q02769 whole entry)

Rattus norvegicus [5] = experiment: In vivo antidyslipidemic activity against Triton WR 1339-induced hyperlipidemic Wistar rat model assessed as decrease in triglyceride level in plasma at 56 umol/kg, ip administered as single dose 1 hr after Triton WR 1339 challenge measured after 24 hrs; assay type: functional
Rattus norvegicus [6] = experiment: In vivo antidyslipidemic activity against Triton WR 1339-induced hyperlipidemic Wistar rat model assessed as decrease in total cholesterol level in plasma at 56 umol/kg, ip administered as single dose 1 hr after Triton WR 1339 challenge measured after 24 hrs; assay type: functional
Rattus norvegicus [7] = experiment: In vivo antidyslipidemic activity against Triton WR 1339-induced hyperlipidemic Wistar rat model assessed as decrease in LDL-cholesterol level in plasma at 56 umol/kg, ip administered as single dose 1 hr after Triton WR 1339 challenge measured after 24 hrs; assay type: functional
Glycine max = experiment: Inhibition of soybean lipoxygenase using sodium linoleate as substrate up to 100 uM measured for 6 mins
Homo sapiens [8] = species on record: Homo sapiens; experiment: Antioxidant activity against CuSO4-induced human LDL oxidation assessed as lag time at 0.50 uM by spectrophotometric analysis (reference value: 113 mins); assay type: functional
Homo sapiens [9] = species on record: Homo sapiens; experiment: Antioxidant activity against CuSO4-induced human LDL oxidation assessed as increase in lag time at 1 uM by spectrophotometric analysis; assay type: functional
Homo sapiens [10] = species on record: Homo sapiens; experiment: Antioxidant activity against CuSO4-induced human LDL oxidation assessed as inhibition of rate of conjugate diene formation at 1 uM by spectrophotometric analysis; assay type: functional
[11] = target: T3, Prostaglandin G/H synthase 1 (Bos taurus) (UniProt O62664); experiment: Inhibition of bovine COX-1 assessed as PGF2-alpha formation using arachidonic acid as substrate at 20 uM by enzyme immunoassay
T3 sequence (whole entry): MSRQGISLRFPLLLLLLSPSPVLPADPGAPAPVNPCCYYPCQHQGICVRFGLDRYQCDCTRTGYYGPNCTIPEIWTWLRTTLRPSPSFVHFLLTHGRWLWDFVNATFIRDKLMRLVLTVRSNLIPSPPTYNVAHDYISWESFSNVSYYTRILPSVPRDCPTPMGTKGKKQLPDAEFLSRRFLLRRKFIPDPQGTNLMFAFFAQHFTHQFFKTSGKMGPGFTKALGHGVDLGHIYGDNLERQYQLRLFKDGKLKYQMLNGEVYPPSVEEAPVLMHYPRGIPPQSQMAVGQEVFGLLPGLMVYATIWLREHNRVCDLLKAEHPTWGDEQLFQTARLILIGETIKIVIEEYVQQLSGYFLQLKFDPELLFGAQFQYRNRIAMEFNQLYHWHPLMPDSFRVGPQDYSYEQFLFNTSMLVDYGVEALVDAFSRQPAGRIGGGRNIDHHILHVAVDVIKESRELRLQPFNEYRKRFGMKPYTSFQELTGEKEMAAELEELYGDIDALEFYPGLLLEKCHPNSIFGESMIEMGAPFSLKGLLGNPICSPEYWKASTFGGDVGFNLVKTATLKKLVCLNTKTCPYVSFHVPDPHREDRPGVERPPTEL

Homo sapiens [12] = species on record: Homo sapiens; experiment: Antioxidant activity against CuSO4-induced human LDL oxidation assessed as increase in lag time at 0.25 uM by spectrophotometric analysis; assay type: functional
Homo sapiens [13] = species on record: Homo sapiens; experiment: Antioxidant activity against CuSO4-induced human LDL oxidation assessed as delta-lag time at 0.25 uM by spectrophotometric analysis; assay type: functional
Homo sapiens [14] = species on record: Homo sapiens; experiment: Antioxidant activity against CuSO4-induced human LDL oxidation assessed as increase in lag time at 0.50 uM by spectrophotometric analysis; assay type: functional
Homo sapiens [15] = species on record: Homo sapiens; experiment: Antioxidant activity against CuSO4-induced human LDL oxidation assessed as lag time at 0.25 uM by spectrophotometric analysis (reference value: 113 mins); assay type: functional
Homo sapiens [16] = species on record: Homo sapiens; experiment: Antioxidant activity against CuSO4-induced human LDL oxidation assessed as delta-lag time at 0.50 uM by spectrophotometric analysis; assay type: functional
Homo sapiens [17] = species on record: Homo sapiens; experiment: Antioxidant activity against CuSO4-induced human LDL oxidation assessed as inhibition of rate of conjugate diene formation at 0.50 uM by spectrophotometric analysis; assay type: functional
Homo sapiens [18] = species on record: Homo sapiens; experiment: Antioxidant activity against CuSO4-induced human LDL oxidation assessed as inhibition of rate of conjugate diene formation at 0.25 uM by spectrophotometric analysis; assay type: functional
Homo sapiens [19] = species on record: Homo sapiens; experiment: Antioxidant activity against CuSO4-induced human LDL oxidation assessed as prolongation of lag time by spectrophotometric analysis; assay type: functional
[20] = Inhibition of soybean lipoxygenase using sodium linoleate as substrate measured for 6 mins
Mus musculus = experiment: In vivo antiinflammatory activity in mouse assessed as decrease in carrageenan-induced paw edema at 0.30 mmol/kg, ip administered immediately after carrageenan injection measured after 3.5 hrs; assay type: functional

pIC50 [1] | pIC50 [3] | pIC50 (Squalene synthase) | inhibition [4] | inhibition (Glycine max) | inhibition [11] [%] | SMILES | inhibition in vivo at 56 µmol/kg (Rattus norvegicus [5]) [%] | inhibition in vivo at 56 µmol/kg (Rattus norvegicus [6]) [%] | inhibition in vivo at 56 µmol/kg (Rattus norvegicus [7]) [%] | further results
3.47 | 5.80 | 5.48 | Dose-dependent effect | – | – | CN1CC(O)(c2ccc3c(c2)Nc2ccccc2S3)Oc2ccccc21 (configuration not stated) | – | – | – | Activity [2]: Active
3.82 | 6.48 | < 4.30 | – | – | – | CC1=CSC(O)(c2ccc3c(c2)Nc2ccccc2S3)CN1C=O (configuration not stated) | – | – | – | Activity [2]: Active
< 3.40 | 4.24 | 5.33 | Dose-dependent effect | inactive | – | CN1c2ccccc2Sc2ccc(C3(O)CN(C)C4CCCCC4O3)cc21 (racemic) | 27 | 26 | 34 | –
< 3.40 | 4.17 | 5.64 | Dose-dependent effect | inactive | – | CN1c2ccccc2Sc2ccc(C3(O)CN4CCCCC4CO3)cc21 (racemic) | 71 | 55 | 26 | –
3.74 | 6.26 | 5.57 | Dose-dependent effect | inactive | 55 | OC1(c2ccc3c(c2)Nc2ccccc2S3)CN2CCCCC2CO1 (racemic) | 63 | 36 | 58 | TIME (Homo sapiens [8]): 3.38 h; Activity (Homo sapiens [9]): 100%; inhibition (Homo sapiens [10]): 100%; Activity (Homo sapiens [12]): 35%; TIME (Homo sapiens [13]): 0.65 h; Activity (Homo sapiens [14]): 80%; Activity [2]: Active; TIME (Homo sapiens [15]): 2.53 h; TIME (Homo sapiens [16]): 1.5 h; inhibition (Homo sapiens [17]): 20%; inhibition (Homo sapiens [18]): 0%; Activity (Homo sapiens [19]): Dose-dependent effect
< 3.40 | 4.92 | 4.79 | Dose-dependent effect | inactive | – | CC(=O)N1c2ccccc2Sc2ccc(C3(O)CN4CCCCC4CO3)cc21 (racemic) | – | – | – | –
< 3.40 | 4.15 | 5.44 | Dose-dependent effect | inactive | 17 | CN1CCOC(O)(c2ccc3c(c2)N(C)c2ccccc2S3)C1 (racemic) | – | – | – | –
< 3.40 | 4.85 | 5.80 | Dose-dependent effect | inactive | – | CC(=O)N1c2ccccc2Sc2ccc(C3(O)CN(C)C4CCCCC4O3)cc21 (racemic) | – | – | – | –
3.92 | 5.05 | – | – | – | 36 | CN1CC(O)(c2ccc(-c3ccccc3)cc2)Oc2ccccc21 (configuration not stated) | 73 | 62 | 74 | –
– | – | – | – | – | 30 | COc1ccc2cc([C@H](C)C(=O)O)ccc2c1 [NAPROXEN] | – | – | – | pIC50 [20]: 4.62; inhibition in vivo at 300 µmol/kg (Mus musculus): 51%
3.57 | 4.08 | – | – | – | 90 | CN1CC(O)(c2ccc(-c3ccccc3)cc2)Sc2ccccc21 (configuration not stated) | 38 | 58 | 26 | –
< 3.40 | 3.35 | – | – | – | – | CN1CC(O)(c2ccc(-c3ccccc3)cc2)OC2CCCCC21 (configuration not stated) | 49 | 54 | 51 | –
< 3.40 | 4.44 | 4.60 | Dose-dependent effect | inactive | – | CC(=O)N1c2ccccc2Sc2ccc(C3(O)CN(C)CCO3)cc21 (racemic) | 76 | 63 | 48 | –
3.63 | < 3.00 | – | – | – | – | CC(C)(Sc1cc(C(C)(C)C)c(O)c(C(C)(C)C)c1)Sc1cc(C(C)(C)C)c(O)c(C(C)(C)C)c1 [PROBUCOL] | 11 | 18 | 18 | –
– | – | – | – | – | – | CCC(C)(C)C(=O)O[C@H]1C[C@@H](C)C=C2C=C[C@H](C)[C@H](CC[C@@H]3C[C@@H](O)CC(=O)O3)[C@H]21 [SIMVASTATIN] | 0 | 75 | 70 | –
– | – | – | – | – | 100 | COc1ccc2c(c1)c(CC(=O)O)c(C)n2C(=O)c1ccc(Cl)cc1 [INDOMETHACIN] | – | – | – | inhibition in vivo at 300 µmol/kg (Mus musculus): 54%

SMILES | pIC50 [1] | pIC50 [3] | pIC50 (Squalene synthase) | inhibition [4] | inhibition (Glycine max) | inhibition [11] [%] | inhibition in vivo at 56 µmol/kg (Rattus norvegicus [5]) [%] | inhibition in vivo at 56 µmol/kg (Rattus norvegicus [6]) [%] | inhibition in vivo at 56 µmol/kg (Rattus norvegicus [7]) [%] | further results
O=c1c(O)c(-c2ccc(O)c(O)c2)oc2cc(O)cc(O)c12 [QUERCETIN] | 4.02 | 4.70 | – | – | – | – | – | – | – | –
